Laboratory results published in publication PMC7303061, “Alternaria toxins as casein kinase 2 inhibitors and possible consequences for estrogenicity: a hybrid in silico/in vitro study” (Archives of Toxicology, 2020).
Read-outs that look alike come from different tables or passages of the source.

What was measured:
[1] = molecular target: T1, casein kinase 2 (CK2α1) (Homo sapiens, UniProt P68400); experiment: cell-free ADP-Glo kinase assay with recombinant CK2α[…] and casein, […] ATP; format: biochemical
T1 construct: gene CSNK2A1; recombinant CK2α1
T1 sequence (P68400 whole entry): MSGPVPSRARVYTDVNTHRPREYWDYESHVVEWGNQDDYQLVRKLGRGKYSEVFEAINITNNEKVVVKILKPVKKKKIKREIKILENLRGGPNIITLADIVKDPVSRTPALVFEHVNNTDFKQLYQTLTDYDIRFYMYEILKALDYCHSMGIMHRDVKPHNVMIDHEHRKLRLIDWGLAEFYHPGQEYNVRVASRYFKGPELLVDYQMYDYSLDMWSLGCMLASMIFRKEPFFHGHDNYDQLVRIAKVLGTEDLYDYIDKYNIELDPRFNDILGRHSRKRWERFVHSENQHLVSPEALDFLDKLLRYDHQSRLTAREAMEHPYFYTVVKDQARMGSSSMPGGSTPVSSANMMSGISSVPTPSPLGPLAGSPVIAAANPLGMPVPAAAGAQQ

[2] = molecular target: T1, casein kinase 2 (CK2α1); experiment: cell-free ADP-Glo kinase assay, single concentration ([…]) positive control; format: biochemical

Cc1cc(O)cc2oc(=O)c3c(O)cc(O)cc3c12 [AOH, alternariol]
IC50 [1]: 0.707 µM

O=C1CC[C@]2(O)c3c(ccc(O)c31)-c1ccc(O)c3c1C2[C@H]1O[C@H]1C3=O (stereo partly drawn) [ATX-II, altertoxin II]
IC50 ([1]; read-out: IC50): 5.1 µM

O=c1c(O)c(-c2ccc(O)c(O)c2)oc2cc(O)cc(O)c12 [QUE, quercetin]
inhibition at 10 µM [2]: 94%
